Assay results published in BindingDB's records for patent WO2022098807 (Merck Sharp &Amp, 2022).

Each compound was assayed against Mitogen-activated protein kinase kinase kinase kinase 1 (Homo sapiens, UniProt Q92918) (assay: HPK1-SLP76 TR-FRET ASSAY).
Sequence of Mitogen-activated protein kinase kinase kinase kinase 1 (Q92918 whole entry): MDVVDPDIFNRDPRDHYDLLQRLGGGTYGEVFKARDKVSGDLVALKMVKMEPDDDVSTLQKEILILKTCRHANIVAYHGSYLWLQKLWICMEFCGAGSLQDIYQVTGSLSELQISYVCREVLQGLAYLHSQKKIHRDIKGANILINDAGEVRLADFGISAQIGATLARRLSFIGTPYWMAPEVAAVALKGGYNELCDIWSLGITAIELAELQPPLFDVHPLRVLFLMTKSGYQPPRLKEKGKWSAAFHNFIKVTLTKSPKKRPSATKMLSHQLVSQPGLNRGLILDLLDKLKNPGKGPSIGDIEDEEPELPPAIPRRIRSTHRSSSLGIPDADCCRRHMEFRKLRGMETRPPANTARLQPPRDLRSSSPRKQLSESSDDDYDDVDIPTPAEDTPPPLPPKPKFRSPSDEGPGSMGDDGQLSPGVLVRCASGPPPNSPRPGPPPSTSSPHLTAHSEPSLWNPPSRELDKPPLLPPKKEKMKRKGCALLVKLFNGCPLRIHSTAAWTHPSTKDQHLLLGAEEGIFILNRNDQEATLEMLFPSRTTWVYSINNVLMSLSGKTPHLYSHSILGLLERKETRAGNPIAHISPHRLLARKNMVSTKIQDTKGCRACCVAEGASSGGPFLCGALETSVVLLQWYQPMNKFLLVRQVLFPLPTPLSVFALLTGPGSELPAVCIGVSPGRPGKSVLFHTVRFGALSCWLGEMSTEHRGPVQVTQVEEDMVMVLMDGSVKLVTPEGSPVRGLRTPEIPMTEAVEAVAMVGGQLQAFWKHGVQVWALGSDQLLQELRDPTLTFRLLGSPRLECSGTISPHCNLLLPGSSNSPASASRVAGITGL
An IC50 of 0.18 nM was found for `Cc1c(-c2c(F)c(N)c3cnc(Nc4cnn(C5CC5)c4C)nc3c2Cl)cnc2c1NCCO2` [WO2022098807, Example 2-45] in this work.
An IC50 of 0.05 nM was found for `Cc1c(-c2cc3nc(Nc4cnn(C56CC(C(C)(C)O)(C5)C6)c4)ncc3c(N)c2F)cnc2c1NCCO2` [WO2022098807, Example 2-46] in this work.
An IC50 of 0.18 nM was found for `Cc1c(-c2c(F)c(N)c3cnc(Nc4cnn([C@H]5CCN(C)C5)c4)nc3c2Cl)cnc2c1NCCO2` [WO2022098807, Example 2-47] in this work.
An IC50 of 0.35 nM was found for `Cc1c(-c2cc3nc(Nc4cnn([C@H]5CCN(C)C5=O)c4)ncc3c(N)c2F)cnc2c1NCCO2` [WO2022098807, Example 2-21] in this work.
An IC50 of 0.09 nM was found for `CNC(=O)C12CC(n3cc(Nc4ncc5c(N)c(F)c(-c6cnc7c(c6C)NCCO7)cc5n4)cn3)(C1)C2` [WO2022098807, Example 2-28] in this work.
An IC50 of 0.67 nM was found for `Cc1c(-c2ccc3cnc(Nc4cc5n(n4)CCN(C(C)(C)O)C(=O)C5)nc3c2)cnc2c1NCCO2` [WO2022098807, Example 1-8] in this work.
An IC50 of 0.08 nM was found for `CCn1cc(Nc2ncc3c(N)c(F)c(-c4cnc5c(c4C)NCCO5)cc3n2)cn1` [WO2022098807, Example 2-22] in this work.
An IC50 of 0.06 nM was found for `Cc1nn(C)cc1Nc1ncc2c(N)c(F)c(-c3cnc4c(c3C)NCCO4)cc2n1` [WO2022098807, Example 2-34] in this work.
An IC50 of 0.07 nM was found for `Cc1cnsc1Nc1ncc2c(N)c(F)c(-c3cnc4c(c3C)NCCO4)cc2n1` [WO2022098807, Example 2-37] in this work.
An IC50 of 0.07 nM was found for `Cc1c(-c2cc3nc(Nc4cnn(C5CCNCC5)c4)ncc3c(N)c2F)cnc2c1NCCO2` [WO2022098807, Example 2-11] in this work.
An IC50 of 0.05 nM was found for `Cc1c(-c2c(F)c(N)c3cnc(Nc4cnn(C5CCN(C)CC5)c4)nc3c2Cl)cnc2c1NCCO2` [WO2022098807, Example 2-44] in this work.
An IC50 of 0.05 nM was found for `Cc1c(-c2cc3nc(Nc4cnn(C5COC5)c4)ncc3c(N)c2F)cnc2c1NCCO2` [WO2022098807, Example 2-39] in this work.
An IC50 of 0.22 nM was found for `Cc1c(-c2ccc3cnc(Nc4cnn(C5CC6(C5)CC(C5(C)COC5)C6)c4)nc3c2)cnc2c1NCCO2` (stereo not given) [WO2022098807, Example 1-2] in this work.
An IC50 of 0.05 nM was found for `Cc1c(-c2cc3nc(Nc4cnn(CC(F)F)c4)ncc3c(N)c2F)cnc2c1NCCO2` [WO2022098807, Example 2-32] in this work.
An IC50 of 0.06 nM was found for `Cc1c(-c2cc3nc(Nc4cc5n(n4)CCN(C(C)C)C(=O)C5)ncc3c(N)c2F)cnc2c1NCCO2` [WO2022098807, Example 2-20] in this work.
An IC50 of 0.17 nM was found for `Cc1c(-c2c(F)c(N)c3cnc(Nc4cnn([C@@H]5CCN(C)C5)c4)nc3c2Cl)cnc2c1NCCO2` [WO2022098807, Example 2-48] in this work.
An IC50 of 0.09 nM was found for `Cc1c(-c2cc3nc(Nc4cnn(C5(C)CC5)c4)ncc3c(N)c2F)cnc2c1NCCO2` [WO2022098807, Example 2-8] in this work.
An IC50 of 0.05 nM was found for `Cc1c(-c2cc3nc(Nc4cnn(C)c4C)ncc3c(N)c2F)cnc2c1NCCO2` [WO2022098807, Example 2-30] in this work.
An IC50 of 0.05 nM was found for `Cc1c(-c2cc3nc(Nc4cnn5c4CCC5)ncc3c(N)c2F)cnc2c1NCCO2` [WO2022098807, Example 2-35] in this work.
An IC50 of 0.15 nM was found for `Cc1c(-c2cc3nc(Nc4cnn([C@@H]5CCN(C)C5=O)c4)ncc3c(N)c2F)cnc2c1NCCO2` [WO2022098807, Example 2-19] in this work.
